Laboratory results from paper PMC9964244, “Effects of Dimerization, Dendrimerization, and Chirality in p-BthTX-I Peptide Analogs on the Antibacterial Activity and Enzymatic Inhibition of the SARS-CoV-2 PL^pro Protein” (Pharmaceutics, 2023).
Values after ≈ are worked out from the molar mass of the structure shown. Values joined by “and” are separate entries in the source; they are usually repeats but may differ in a detail not shown here. Identical values can stand only once. Bridge positions count the residues as written; N and C are the ends. Peptide text beside a SMILES is read from it. I, II: the chains in the order shown.

Columns and labels:
S. aureus ATCC 25923 = test: MIC/MBC, broth microdilution and subculture on CA-MH agar; assay type: cell-based, Staphylococcus aureus; design: key to Act (antibacterial activity): Bc, bactericidal; Bs, bacteriostatic
Procedure: (§1) Bacterial isolates from the American Type Culture Collection (ATCC) were obtained from the Collection of Reference Bacteria on Health Surveillance, Oswaldo Cruz Foundation (FIOCRUZ) after phenotypic and molecular quality control and were registered at SISGEN under the number ADB556B. The minimum inhibitory concentration (MIC) was determined as previously described by Santos-Filho et al., 2021 [17], using the broth microdilution method. The MIC was the lowest concentration that inhibited microbial growth. […] MBC was defined as the lowest peptide concentration with no visible growth on the plate. […] The assay was performed in triplicate, and the values represent the mode of the obtained results.
(§2) Thus, to assess the relevance of the antimicrobial effect of p-Bth analogs, their Minimum Inhibitory Concentration (MIC) and Minimum Bactericidal Concentration (MBC) were analyzed against relevant bacteria. The evaluated strains were the Gram-positives: S. aureus ATCC 25923, S. epidermidis ATCC 35984, E. faecalis ATCC 29212, and E. faecium ATCC […] (Table 1); and the Gram-negatives: K. pneumoniae ATCC 700603, E. coli ATCC 25922, A. baumannii ATCC 19606, and P. aeruginosa ATCC 27853 (Table 2).

E. coli ATCC 25922 = test: as above; assay type: cell-based; design: key to Act (antibacterial activity): Bc, bactericidal; Bs, bacteriostatic
Procedure: as §1, §2

E. faecalis ATCC 29212 = test: as above; assay type: cell-based; design: key to Act (antibacterial activity): Bc, bactericidal; Bs, bacteriostatic
Procedure: as §1, §2

[1] = tested on: S. epidermidis ATCC 35984; test: as above; assay type: cell-based; design: key to Act (antibacterial activity): Bc, bactericidal; Bs, bacteriostatic
Procedure: as §1, §2

E. faecium ATCC 700221 = test: as above; assay type: cell-based, Enterococcus faecium; design: key to Act (antibacterial activity): Bc, bactericidal; Bs, bacteriostatic
Procedure: as §1, §2

[2] = tested on: K. pneumoniae ATCC 700603; test: as above; assay type: cell-based, Klebsiella pneumoniae; settings: broth microdilution, triplicate, mode
Procedure: as §1, §2

A. baumannii ATCC 19606 = test: as above; assay type: cell-based, Acinetobacter baumannii; settings: triplicate, mode
Procedure: as §1, §2

P. aeruginosa ATCC 27853 = test: as above; assay type: cell-based, Pseudomonas aeruginosa; settings: broth microdilution, triplicate, mode
Procedure: as §1, §2

[3] = Carboxyfluorescein leakage, vesicle permeabilization; settings: 80% POPE / 20% POPG vesicles; peptide 50 µM
Procedure: The permeabilization of lipid vesicles containing carboxyfluorescein was carried out using a spectrofluorometer model Fluorolog-3 FL3-122 from Horiba Jobin Yvon (Newark, NJ, USA) (dimers and tetramers) or in a spectrofluorometer model RF-1501 Shimadzu (Kyoto, Japan) (monomer). For RF-1501, the quantification of the fluorescence intensity was performed every 20 s. Two vesicle compositions were used: (1) 80% 1-palmitoyl-2-oleoyl-sn-glycero-3-phosphoethanolamine (POPE) and 20% 1-palmitoyl-2-oleoyl-sn-glycero- 3-phospho-(10-rac-glycerol) (POPG); and (2) 95% 1-palmitoyl-2-oleoyl-sn-glycero-3-phosphocholine (POPC) and 5% POPG. The percentage of leakage was obtained through the following equation:% release = (Fmeasured − Finitial)/(Ffinal − Finitial) × 100, where Ffinal is the average fluorescence value obtained after the addition of Triton, Finitial is the average of the initial values of the run before the addition of the peptide, and Fmeasured are the fluorescence values obtained at each point of the experiment.
Here, we evaluated two systems of membrane mimetics, including vesicles with a composition of 80% POPE and 20% POPG, and another with 95% POPC and 5% POPG. The first is widely used as a model of bacterial membranes, specifically of E. coli membrane. Membranes constituting POPC and POPG were used to mimic mammalian membranes due to the presence of choline-containing lipids in animal membranes.

erythrocytes = tested on: erythrocytes; design: method as in earlier work; settings: at a concentration of 512 µg/mL; ref 17 (Santos-Filho et al., 2021); cited from earlier work
SARS-CoV-2 PL^pro = target: T1, SARS-CoV-2 PL^pro (Severe acute respiratory syndrome coronavirus 2, UniProt P0DTD1); settings: PL^pro from SARS-CoV-2, ref 19 (Freire et al., 2021), cited from earlier work
T1 construct: made in house
Procedure: Table 3 PL^pro activity by peptide analogs of p-BThTX-I at the concentration of 10 μM and IC50 values. Representative concentration–response inhibition curves against PL^pro from SARS-CoV-2 are presented in the Supplementary Material (Figure S7). | column: Inhibition (%) at 10 µM; IC50 μM

SARS-CoV-2 = settings: Vero cells; cited from earlier work
Description: In December 2019, the first case of viral infection with a new coronavirus was reported in China, which was later named severe acute respiratory syndrome coronavirus 2 (SARS-CoV-2), and the disease caused by this was named coronavirus-2019 or COVID-19 by the WHO. This disease has taken on great proportions, causing a pandemic scenario and great global concern. Even with the improvements in disease control, there is still a need for new, specific antiviral therapeutic options. As antimicrobial peptides also have antiviral action, the L-dimer, D-dimer and L-tetramer, in addition to ...

[4] = MBC/MIC ratio >4 suggests bacteriostatic
[5] = broth microdilution, triplicate, mode
[6] = subculture on CA-MH agar, 37 °C, 24 h, triplicate, mode

CC(C)C[C@H](NC(=O)[C@H](Cc1c[nH]cn1)NC(=O)[C@H](Cc1ccc(O)cc1)NC(=O)[C@H](CCCNC(=N)N)NC(=O)[C@H](Cc1ccc(O)cc1)NC(=O)[C@H](CCCCN)NC(=O)[C@@H](N)CCCCN)C(=O)N[C@@H](CCCCN)C(=O)N1CCC[C@H]1C(=O)N[C@@H](Cc1ccccc1)C(=O)NCCCC[C@H](NC(=O)[C@H](Cc1ccccc1)NC(=O)[C@@H]1CCCN1C(=O)[C@H](CCCCN)NC(=O)[C@H](CC(C)C)NC(=O)[C@H](Cc1c[nH]cn1)NC(=O)[C@H](Cc1ccc(O)cc1)NC(=O)[C@H](CCCNC(=N)N)NC(=O)[C@H](Cc1ccc(O)cc1)NC(=O)[C@H](CCCCN)NC(=O)[C@@H](N)CCCCN)C(N)=O [L-dimer, [des-Cys^11,Lys^12,Lys^13-(p-BthTX-I)2K]] (I: H-KKYRYHLKPFK-NH2 / II: H-KKYRYHLKPF; amide I:11-II:C; N-terminus assumed)
Act (antibacterial activity) (S. aureus ATCC 25923; [4]): Bc | MIC (S. aureus ATCC 25923; [5]): 32 μg/mL and 11 µM | MBC (S. aureus ATCC 25923; [6]): 128 µg/mL (≈ 44.6 µM) | Act (antibacterial activity) (E. coli ATCC 25922; [4]): Bc | MIC (E. coli ATCC 25922; [5]): 32 μg/mL and 11 µM | MBC (E. coli ATCC 25922; [6]): 64 µg/mL (≈ 22.3 µM) | Act (antibacterial activity) (E. faecalis ATCC 29212; [4]): Bc | MIC (E. faecalis ATCC 29212; [5]): 22 µM and 64 μg/mL | MBC (E. faecalis ATCC 29212; [6]): 128 µg/mL (≈ 44.6 µM) | Act (antibacterial activity) [1, 4]: Bc | MIC [1, 5]: 8 μg/mL and 2 µM | MBC [1, 6]: 16 µg/mL (≈ 5.58 µM) | Act (antibacterial activity) (E. faecium ATCC 700221; [4]): Bs | MIC (E. faecium ATCC 700221; [5]): 16 μg/mL and 5 µM | MBC (E. faecium ATCC 700221; [6]): >64 µg/mL | MIC [2]: >128 μg/mL and >44 µM | MIC (A. baumannii ATCC 19606; broth microdilution): 89 µM and 256 μg/mL | MBC (A. baumannii ATCC 19606; subculture on CA-MH agar, 37 °C, 24 h): >512 µg/mL | MIC (P. aeruginosa ATCC 27853): >512 μg/mL and >178 µM | carboxyfluorescein leakage, maximum percentage [3]: 15% | hemolysis rate (erythrocytes): below 5% | Inhibition (%) at 10 µM (SARS-CoV-2 PL^pro; peptide 10 µM): 98.05 ± 1.62% | IC50 (SARS-CoV-2 PL^pro): 2400 ± 100 nM | percentage inhibition of SARS-CoV-2 infection (SARS-CoV-2): 27%
